From patent publication US20150031760A1, “PHARMACEUTICAL COMPOSITION FOR PREVENTING OR TREATING NERVOUS SYSTEM DISORDERS COMPRISING SULFURETIN OR PHARMACEUTICALLY ACCEPTABLE SALT THEREOF” (Research and Business Foundation SUNGKYUNKWAN UNIVERSITY, priority 2010, published 2015)
No end group written: not given here.

What was measured:
SH-SY5Y cells [1] = assay: Inhibition of intracellular [Ca2+] influx (Fura-2-AM fluorescence); format: cell-based, human; conditions: hydrogen peroxide alone, 30 minutes; normal control 281 nM or less
Procedure: (§1) The incubator was maintained at a temperature of 37° C., and a mixed gas of 95% air and 5% CO2 was continuously supplied thereto to provide suitable conditions for cell culture. The cells were cultured in a 6-well plate or a 96-well plate at each of densities of 1×10^6 and 2×10^4 cells/well 24 hours before the experiment. […] Sulfuretin was used in ethanol and used at a final concentration of 0.1% or less.
In order to measure inhibitory effects on intracellular [Ca^2+] influx caused by oxidative stress, cells were labeled with Fura-2-AM fluorescence, and quantitative analysis was carried out using a fluorescence meter. Specifically, 10 μl of 5 μM Fura-2-AM was added to each well of the 6-well plate (in which the cells have been cultured) and then allowed to react for 30 minutes. Herein, Fura-2-AM in the incubator was covered with a silver foil such that it would not be exposed to light. After completion of the incubation, the plate was pretreated with sulfuretin for 30 minutes, and then reacted with hydrogen peroxide for 30 minutes to induce the intracellular influx of [Ca^2+]. Then, the cells that reacted with the Fura-2-AM fluorescent substance were washed twice with cold HEPES and detached with HEPES. Then, the cells were centrifuged at 400 g for 3 minutes. The supernatant was removed carefully, stirred weakly with 0.5 ml of HEPES buffer, and then 150 μl was dispensed into each well of a fresh 96-well plate. The fluorescence of the sample dispensed into the fresh 96-well plate was measured at an excitation wavelength of […] and an emission wavelength of 520 nm using a fluorescence meter (Perkinelmer, USA).
The measured value was substituted into the following equation to calculate intracellular [Ca^2+] nM: […]

phospho-p38 = assay: Western blot, phospho-p38 expression; format: cell-based, human; conditions: SH-SY5Y cells; hydrogen peroxide alone, 24 hours; normal control 100%
Procedure: as §1
(§2) In order to identify the effect of sulfuretin on the expression of proteins related to dementia, Alzheimer's disease, Parkinson's disease and strokes, a Western blot test was carried out.
(§3) After 24 hours, the supernatant of each well was collected and centrifuged at 400 g for 3 minutes, and the cells were washed with cold PBS and lysed with 100 μl of T-PER lysis buffer (Thermo, USA) for 30 minutes. The lysates were centrifuged at 10000 g at 4° C. for 15 minutes, and the supernatants were stored at […] until use as test samples. Proteins were quantitatively analyzed using a BCA assay kit (Thermo, USA) and separated within 8.5-12% SDS gel and then transferred to PVDF membranes. To examine the expression of the proteins, the development of fluorescence was analyzed by enhanced chemiluminescence (ECL). Specifically, the membrane was blocked with 5% skimmed non-fat milk for 1 hour and labeled with the primary antibodies, PARP, caspase-3, phospho-p38, phospho-JNK and β-actin at 4° C. overnight. Then, the membrane was washed three times with Tris-tween buffered saline (TTBS), and then labeled with horseradish peroxidase (HRP)-conjugated anti-rabbit and anti-mouse secondary antibodies at room temperature for 1 hour. Then, the membrane was washed five times with TTBS for 10 minutes. The washed film was developed by ECL using x-ray films, and concentrations were quantitatively analyzed using quantitative analysis program (Fujifilm, Japan).

SH-SY5Y cells [2] = assay: Inhibition of mitochondrial membrane potential (MMP) damage (rhodamine-123); format: cell-based, human; conditions: hydrogen peroxide alone, 30 minutes; normal control 99% or less
Procedure: as §1
In order to measure the inhibition of MMP damage, cells were labeled with rhodamine-123 fluorescence, and quantitative analysis was performed using a fluorescence meter. Specifically, the 6-well plate in which the cells have been cultured was pretreated with sulfuretin for 30 minutes and then reacted with hydrogen peroxide for 30 minutes to induce MMP damage. Then, 10 μl of 10 μM rhodamine-123 was added to each well of the plate and allowed to react for 30 minutes. Herein, rhodamine-123 in the incubator was covered with a silver foil such that it would not be exposed to light. The cells that reacted with the rhodamine-123 fluorescent substance were detached with cold PBS and centrifuged at 400 g for 3 minutes. The centrifugation process was repeated twice to wash the fluorescent substance. The washed cells were stirred briefly with 0.5 ml of PBS, and 100 μl was dispensed into each well of a fresh 96-well plate. The fluorescence of the cells was measured at an excitation wavelength of 480 nm and an emission wavelength of 530 nm using a fluorescence meter (Perkinelmer, USA).
The measured fluorescence was substituted into the following equation to calculate ΔΨm:
ΔΨm(%)=[(O.D. of control−O.D. of test group)/O.D. of control]×100

SH-SY5Y cells [3] = assay: Inhibition of ROS production (DCFH-DA fluorescence); format: cell-based, human; conditions: hydrogen peroxide alone, 30 minutes; control 102% or less
Procedure: as §1
In order to measure ROS elimination activity, cells were labeled with DCFH-DA fluorescence, and quantitative analysis was performed using a fluorescence meter.
Specifically, the 6-well plate in which the cells have been cultured was pretreated with sulfuretin for 2 hours, and then reacted with hydrogen peroxide for 30 minutes to induce ROS. Then, 10 μl of 10 mM DCFH-DA was added to the plate and allowed to react with the cells for 30 minutes. Herein, DCFH-DA in the incubator was covered with a foil such that it would not be exposed to light. The cells that reacted with the DCFH-DA fluorescent substance were detached using cold PBS and centrifuged at 400 g for 3 minutes. The centrifugation process was repeated twice to wash the fluorescent substance. The washed cells were briefly stirred with 1 ml of PBS, and 100 μl was dispensed into each of a fresh 96-well plate. Then, fluorescence was measured at an excitation wavelength of 488 nm and an emission wavelength of 515 nm using a fluorescence meter (Perkinelmer, USA).
The measured value was substituted into the following equation to calculate ROS production:
ROS production (%)=[(O.D. of control−O.D. of test group)/O.D. of control]×100

caspase-3 = assay: Western blot, caspase-3 expression; format: cell-based, human; conditions: SH-SY5Y cells; hydrogen peroxide alone, 24 hours; normal control 100%
Procedure: as §1, §2, §3

in vitro = conditions: human
Procedure: as §1
To measure cell viability, an MTT reduction assay was used. An MTT solution was added to each well of the 96-well plate (in which the cells have been cultured) to a final concentration of 0.5 mg/ml. The plate was incubated in an incubator for 2 hours, and the medium and the MIT solution were removed, after which DMSO was added thereto and stirred. When DMSO was completely dissolved, the UV absorbance at 540 nm was measured using a microplate reader (Molecular device, USA).
The measured absorbance was substituted into the following equation to calculate cell viability:
Cell viability (%)=[(O.D. of control−O.D. of test group)/O.D. of control]×100

phospho-JNK = assay: Western blot, phospho-JNK expression; format: cell-based, human; conditions: SH-SY5Y cells; hydrogen peroxide alone, 24 hours; normal control 100%
Procedure: as §1, §2, §3

SH-SY5Y cells [4] = assay: LDH secretion (cytotoxicity) test; format: cell-based, human
Procedure: as §1
To measure LDH secretion (cytotoxicity), an LDH cytotoxicity assay kit was used. 50 μl of the medium was taken from each well of the 96-well plate (in which the cells have been cultured) and dispensed into each well of a fresh 96-well plate, and 50 μl of a reaction reagent was added to each well, after which the plate was shielded from light. The plate was incubated in an incubator for 30 minutes, and the UV absorbance at 490 nm was measured using a microplate reader (Molecular device, USA).
The measured absorbance was substituted into the following equation to calculate LDH secretion:
LDH secretion (%)=(LDH secretion O.D. in medium/total LDH secretion O.D.)×100

PARP = assay: Western blot, PARP expression; format: cell-based, human; conditions: SH-SY5Y cells; hydrogen peroxide alone, 24 hours; normal control 100%
Procedure: as §1, §2, §3

mice [5] = assay: Scopolamine-induced cognitive impairment, spontaneous alternation behavior Y-maze test; format: in vivo; conditions: scopolamine 0.5 mg/kg, i.p., compared with the control group (p<0.05)
Procedure: (§4) Male ICR mice (4-weeks-old, 18-20 g) were purchased from Koatech Co., Ltd. (Pyongtaek, Korea). Mice were housed 10 per cage, allowed access to water and food ad libitum, and maintained in constant temperature (23±1° C.) and humidity (55±5%) conditions under a 12 hour light/dark cycle (lights on 07:00 to 19:00 h). All experiments were conducted in accord with the NIH Guide for the Care and Use of Laboratory Animals and with the approval of the Institutional Animal Care and Use Committee of Sungkyunkwan University.
The spontaneous alternation behavior was measured by Y-maze which consists of a horizontal maze (30 cm long and 5 cm wide, with walls 12 cm high) with three arms (labeled A, B, and C). The maze floor and walls are constructed of dark grey, polyvinyl plastic. Mice were initially placed within one arm, and the number of alternations (i.e., consecutive entry sequences of ABC, CAB, or BCA but not BAB) and the number of arm entries were manually recorded for each mouse over an 8 minutes period. One hour before each test, the mice were given sulfuretin (0.25, 0.5, or 1 mg/kg, p.o.). After 30 minutes, memory impairment was induced by administering scopolamine (0.5 mg/kg, i.p.). […] The percentage alternation was calculated according to the following equation: Percentage alternation=[(Number of alternations)/(Total arm entries−2)]×100. […]

mice [6] = assay: Scopolamine-induced learning and memory deficits, step-through passive avoidance test; format: in vivo; conditions: scopolamine 0.5 mg/kg, i.p. (p<0.05)
Procedure: as §4
Assessment of the training or test trials of the passive avoidance test was carried out in identical illuminated and non-illuminated compartments (12×10×12 cm) containing 2-mm stainless steel rods spaced 0.5 cm apart. A 50 W lamp positioned 1 meter above both chambers illuminated the apparatuses. Briefly, the mice underwent two separate trials, a training trial and a test trial 24 hours later. For the training trial, mice were initially placed in the clear chamber. When they entered the dark chamber, the door closed and a 3-sec electrical foot shock (0.5 mA) was delivered through the stainless steel rods. One hour before each training trial, mice were given sulfretin (0.25, 0.5, or 1 mg/kg, p.o.). After 30 minutes, memory impairment was induced by administering scopolamine (0.5 mg/kg, i.p.). Twenty-four hours after the training trial, mice were placed in the illuminated chamber for the test trial. The time for the mouse to enter the dark compartment after the door opening was defined as latency for both training and test trials. Latencies were recorded for up to 300 s. To avoid a ceiling effect in unimpaired animals, sulfuretin alone was administered 1 hour before the training trial without scopolamine treatment. The intensity of electrical foot shock was set at 0.25 mA for 3 seconds. This lower intensity shock allowed for a behavioral window through which to detect any enhancing effect of sulfuretin.

[7] = MTT (cell viability) test, corticosterone-induced cell death in PC12 cells; format: cell-based; conditions: rat
Procedure: For the experiment shown in FIG. 3, PC12 cells were cultured in DMEM medium (Hyclone, Thermo, USA) containing 10% FBS, 5% horse serum and antibiotics (Gibco-BRL, USA). […] The concentration of corticosterone was determined to be 400 μM after evaluation of cell viability.

SH-SY5Y cells [8] = assay: LDH assay, amyloid beta25-35-induced cytotoxicity; format: cell-based, human; conditions: 20 μM amyloid beta25-35 alone for 24 h, versus control cells (p<0.001)
Tau = assay: Western blot, amyloid beta25-35-induced hyperphosphorylation of Tau; format: cell-based, human; conditions: SH-SY5Y cells; 20 μM amyloid beta25-35 alone, compared with control samples (p<0.05 and p<0.01)

Compound: OO [hydrogen peroxide, reference compound]
- intracellular [Ca2+] influx (SH-SY5Y cells [1]): ≥ 600 nM
- phospho-p38 expression (phospho-p38): ≥ 133%
- MMP (ΔΨm) (SH-SY5Y cells [2]): ≤ 55%
- ROS production (SH-SY5Y cells [3]): ≥ 148%
- caspase-3 expression (caspase-3): ≤ 40%
- viability at 400 µM (in vitro; cell viability): ≥ 55%
- phospho-JNK expression (phospho-JNK): ≥ 173%
- LDH secretion (SH-SY5Y cells [4]; hydrogen peroxide alone, normal control 11% or less): ≥ 80%
- PARP expression (PARP): ≤ 38%

Compound: CN1[C@@H]2C[C@@H](OC(=O)[C@H](CO)c3ccccc3)C[C@H]1[C@@H]1O[C@@H]12 [scopolamine, reference compound]
- spontaneous alternation behavior (mice [5]): significantly decreased
- step-through latency time (test trial) (mice [6]): decreased

Compound: C[C@]12C[C@H](O)[C@H]3[C@@H](CCC4=CC(=O)CC[C@@]43C)[C@@H]1CC[C@@H]2C(=O)CO [corticosterone, Corticosterone, reference compound]
- viability at 400 µM [7]: ≥ 55%

Compound: GSNKGAIIGLM [beta-amyloid, amyloid-beta 25-35 fragment, reference compound]
- LDH activity (LDH release) (SH-SY5Y cells [8]): increased significantly
- phosphorylation of Tau proteins (Tau): rapidly increased
- LDH secretion (SH-SY5Y cells [4]; beta-amyloid alone, normal control 12% or less): ≥ 15%

Compound: NCCc1cc(O)c(O)cc1O [6-hydroxydopamine, reference compound]
- viability at 200 µM (in vitro): ≥ 69%
